In patent US12569502B2, “Use of bile acids and derivatives thereof in preparation of GPR39 agonist” (PEKING UNIVERSITY, priority 2019, dated 2026):
Changes are numbered by the printed parent chain.

Assays:
Assay type in all cases: cell-based
GPR39 mutant D330A = target: T1, GPR39 mutant D330A (Mus musculus, UniProt Q5U431, D330A); test: Calcium imaging of GPR39 activation site mutant, transiently transfected cells; conditions: FIG. 7
T1 construct: 3HA (N); P2A-mCherry (C); expressed in transfected cells; host or cells: HEK293T, transient (Lipofectamine 3000)
T1 sequence (Q5U431 1-456 D330A): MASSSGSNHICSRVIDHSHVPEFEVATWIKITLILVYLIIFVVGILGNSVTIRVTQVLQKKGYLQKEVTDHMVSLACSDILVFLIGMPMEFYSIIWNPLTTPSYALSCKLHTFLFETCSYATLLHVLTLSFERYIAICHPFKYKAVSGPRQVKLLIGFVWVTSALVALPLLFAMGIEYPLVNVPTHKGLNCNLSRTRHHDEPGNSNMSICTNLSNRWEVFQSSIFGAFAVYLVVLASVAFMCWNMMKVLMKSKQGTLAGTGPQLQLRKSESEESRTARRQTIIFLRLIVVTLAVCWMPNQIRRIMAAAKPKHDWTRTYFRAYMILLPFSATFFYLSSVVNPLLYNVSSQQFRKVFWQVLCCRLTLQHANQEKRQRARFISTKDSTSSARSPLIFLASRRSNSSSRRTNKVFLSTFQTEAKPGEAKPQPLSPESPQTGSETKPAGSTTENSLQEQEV
Text: (§1) GPR39 mutants E90A, F115A, E116A and D330A were firstly constructed according to the method of Example 5.

GPR39 mutant E116A = target: T2, GPR39 mutant E116A (Mus musculus, UniProt Q5U431, E116A); test: as above; conditions: FIG. 7
T2 construct: 3HA (N); P2A-mCherry (C); expressed in transfected cells; host or cells: HEK293T, transient (Lipofectamine 3000)
T2 sequence (Q5U431 1-456 E116A): T1 sequence (Q5U431 1-456 D330A) with E116A, A330D
Text: as §1

GPR39 mutant E90A = target: T3, GPR39 mutant E90A (Mus musculus, UniProt Q5U431, E90A); test: as above; conditions: FIG. 7
T3 construct: 3HA (N); P2A-mCherry (C); expressed in transfected cells; host or cells: HEK293T, transient (Lipofectamine 3000)
T3 sequence (Q5U431 1-456 E90A): T1 sequence (Q5U431 1-456 D330A) with E90A, A330D
Text: as §1

GPR39 mutant F115A = target: T4, GPR39 mutant F115A (Mus musculus, UniProt Q5U431, F115A); test: as above; conditions: FIG. 7
T4 construct: 3HA (N); P2A-mCherry (C); expressed in transfected cells; host or cells: HEK293T, transient (Lipofectamine 3000)
T4 sequence (Q5U431 1-456 F115A): T1 sequence (Q5U431 1-456 D330A) with F115A, A330D
Text: as §1

[1] = target: T5, Neuromedin-U receptor 1 (NMUR1, NP_006047.3) (Homo sapiens, UniProt Q9HB89); test: Confocal calcium imaging of Ghrelin receptor family, overexpressed in HEK293T cells; conditions: 200 μM
T5 construct: mCherry; host or cells: HEK293T, transient
T5 sequence (Q9HB89 1-426): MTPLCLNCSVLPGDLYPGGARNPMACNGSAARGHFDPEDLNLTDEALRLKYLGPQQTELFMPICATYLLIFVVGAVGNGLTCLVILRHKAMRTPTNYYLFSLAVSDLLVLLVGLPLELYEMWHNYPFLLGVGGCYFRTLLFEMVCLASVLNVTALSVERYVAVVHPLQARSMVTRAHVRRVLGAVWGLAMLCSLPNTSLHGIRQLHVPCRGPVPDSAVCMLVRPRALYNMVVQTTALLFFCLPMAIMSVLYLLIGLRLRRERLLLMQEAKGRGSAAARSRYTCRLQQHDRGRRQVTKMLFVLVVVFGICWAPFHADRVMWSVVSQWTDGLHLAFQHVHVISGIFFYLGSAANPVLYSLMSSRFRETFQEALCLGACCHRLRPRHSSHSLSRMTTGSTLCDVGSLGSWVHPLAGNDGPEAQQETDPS
Protocol: (§2) According to the transient transfection method of Example 5.2, the 6 receptors of Ghrelin family except GPR39 were overexpressed in HEK293T cells respectively (the expression vectors for these 6 receptors came from the research group of Rao Yi, Peking University), and calcium dye was incubated. An inverted laser confocal microscope (leica Co.) was used to detect the activation of the 6 receptors of Ghrelin family by LCAS. The specific operations were as below: placing the cells to be detected on the microscope stage, detecting the fluorescence signal value of the calcium dye Fluo8 with the 488 nm channel, and detecting the fluorescence signal value of mCherry with the 543 nm channel. All receptors fused to express the red fluorescence protein mCherry, and the expression of receptors was determined by detecting the red fluorescence emitted from mCherry.

[2] = target: T6, Neurotensin receptor 1 (NTSR1, NP_002522.2) (Homo sapiens, UniProt P30989); test: as above; conditions: 200 μM
T6 construct: mCherry; host or cells: HEK293T, transient
T6 sequence (P30989 whole entry): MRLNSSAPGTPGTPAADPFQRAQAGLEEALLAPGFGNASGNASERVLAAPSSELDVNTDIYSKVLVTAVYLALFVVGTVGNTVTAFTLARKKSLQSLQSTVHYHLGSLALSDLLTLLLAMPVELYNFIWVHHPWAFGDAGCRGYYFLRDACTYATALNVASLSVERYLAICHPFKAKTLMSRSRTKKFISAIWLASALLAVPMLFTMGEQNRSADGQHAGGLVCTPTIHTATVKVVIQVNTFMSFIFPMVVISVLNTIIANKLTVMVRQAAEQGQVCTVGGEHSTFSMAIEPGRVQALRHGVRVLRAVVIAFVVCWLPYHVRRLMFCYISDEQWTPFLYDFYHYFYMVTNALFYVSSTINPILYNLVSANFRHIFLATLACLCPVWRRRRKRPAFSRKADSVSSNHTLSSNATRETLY
Protocol: as §2

Compound: C[C@H](CCC(=O)O)[C@H]1CC[C@H]2[C@@H]3CC[C@@H]4C[C@H](OS(=O)(=O)O)CC[C@]4(C)[C@H]3CC[C@]12C [LCAS]
- activation of mutant D330A (calcium imaging) (GPR39 mutant D330A): activated
- activation of mutant E116A (calcium imaging) (GPR39 mutant E116A): activated
- activation of mutant E90A (calcium imaging) (GPR39 mutant E90A): activated
- activation of mutant F115A (calcium imaging) (GPR39 mutant F115A): activated
- activation of NMUR1 (calcium imaging) [1]: cannot be activated
- activation of NTSR1 (calcium imaging) [2]: cannot be activated
